PubChem BioAssay AID330 (DTP/NCI, 2004)
“And” between values parts separate entries of the source, which are not always exact repeats. Equal entries are not always repeated. Inconclusive results and toxic doses are left out.

System: P388 leukemia ip, CD2F1 mice, survival T/C
Experiment: NCI In Vivo Anticancer Drug Screen. Data for tumor model P388 Leukemia (intraperitoneal) in CD2F1 (CDF1) mice
Details: endpoint: median survival time, higher = longer survival
How it was run: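 Mice carrying the transplanted tumor received test compound or vehicle. Survival was recorded in each group, and the value is the treated-group measurement divided by that of the vehicle-treated control group.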

[1] = dose: 60.0 mg/kg/injection, schedule: Q01DX005 (ip), vehicle: Klucel (hydroxypropylcellulose) (HPC)
[2] = dose: 120.0 mg/kg/injection, schedule: Q01DX005 (ip), vehicle: Klucel (hydroxypropylcellulose) (HPC)
[3] = dose: 50.0 mg/kg/injection, schedule: Q01DX009 (ip), vehicle: saline with Tween-80
[4] = dose: 100.0 mg/kg/injection, schedule: Q01DX009 (ip), vehicle: saline with Tween-80
[5] = dose: 200.0 mg/kg/injection, schedule: Q01DX009 (ip), vehicle: saline with Tween-80
[6] = dose: 60.0 mg/kg/injection, schedule: Q01DX005 (ip), vehicle: saline with Tween-80
[7] = dose: 120.0 mg/kg/injection, schedule: Q01DX005 (ip), vehicle: saline with Tween-80
[8] = dose: 240.0 mg/kg/injection, schedule: Q01DX005 (ip), vehicle: saline with Tween-80
[9] = dose: 50.0 mg/kg/injection, schedule: Q01DX005 (ip), vehicle: Klucel (hydroxypropylcellulose) (HPC)
[10] = dose: 100.0 mg/kg/injection, schedule: Q01DX005 (ip), vehicle: Klucel (hydroxypropylcellulose) (HPC)

S=c1nc[nH][nH]1
T/C (dose: 50.0 mg/kg/injection, schedule: Q01DX009 (ip), vehicle: suspension in saline): 99 % of control | T/C (dose: 100.0 mg/kg/injection, schedule: Q01DX009 (ip), vehicle: suspension in saline): 105 % of control | T/C (dose: 200.0 mg/kg/injection, schedule: Q01DX009 (ip), vehicle: suspension in saline): 106 % of control

Cc1nccc2c1[nH]c1cc(N)ccc12.[Cl][Sn][Cl]
T/C (dose: 5.0 mg/kg/injection, schedule: Q01DX009 (ip), vehicle: saline sonified): 100 % of control | T/C (dose: 10.0 mg/kg/injection, schedule: Q01DX009 (ip), vehicle: saline sonified): 95 % of control | T/C (dose: 20.0 mg/kg/injection, schedule: Q01DX009 (ip), vehicle: saline sonified): 100 % of control

C=CCS(=O)(=O)O
T/C (dose: 100.0 mg/kg/injection, schedule: Q01DX009 (ip), vehicle: saline): 100 % of control | T/C (dose: 200.0 mg/kg/injection, schedule: Q01DX009 (ip), vehicle: saline): 104 % of control | T/C (dose: 400.0 mg/kg/injection, schedule: Q01DX009 (ip), vehicle: saline): 100 % of control

CC(C)(C)C(=O)Nc1ccc2c(c1)C(=O)c1ccccc1C2=O
T/C (dose: 50.0 mg/kg/injection, schedule: Q01DX005 (ip), vehicle: saline with Tween-80): 100 % of control | T/C (dose: 100.0 mg/kg/injection, schedule: Q01DX005 (ip), vehicle: saline with Tween-80): 87 % of control | T/C (dose: 200.0 mg/kg/injection, schedule: Q01DX005 (ip), vehicle: saline with Tween-80): 89 % of control

Nc1ccc(C2NC(=O)Cc3c2ccc2ccccc32)cc1 (centres undefined)
T/C [1]: 95 % of control | T/C [2]: 94 % of control | T/C (dose: 240.0 mg/kg/injection, schedule: Q01DX005 (ip), vehicle: Klucel (hydroxypropylcellulose) (HPC)): 95 % of control

CC1OC(OCc2ccc(-c3ccccc3)cc2)CC(N)C1O (centres undefined)
T/C (dose: 1.56 mg/kg/injection, schedule: Q01DX009 (ip), vehicle: water): 99 % of control | T/C (dose: 3.13 mg/kg/injection, schedule: Q01DX009 (ip), vehicle: water): 104 % of control | T/C (dose: 6.25 mg/kg/injection, schedule: Q01DX009 (ip), vehicle: water): 107 % of control | T/C (dose: 12.5 mg/kg/injection, schedule: Q01DX009 (ip), vehicle: water): 108 % of control | T/C (dose: 25.0 mg/kg/injection, schedule: Q01DX009 (ip), vehicle: water): 98 % of control

COc1cccc2c1[C@H]1CO[C@H]3C4C[C@H](C(=O)O)C([C@@H](C2)N13)N4C (some centres undefined)
T/C (dose: 0.31 mg/kg/injection, schedule: Q01DX005 (ip), vehicle: water): 112 % of control | T/C (dose: 0.62 mg/kg/injection, schedule: Q01DX005 (ip), vehicle: water): 113 % of control and 121 % of control | T/C (dose: 1.25 mg/kg/injection, schedule: Q01DX005 (ip), vehicle: water): 116 % of control | T/C (dose: 10.0 mg/kg/injection, schedule: Q01DX005 (ip), vehicle: water): 165 % of control and 195 % of control and 247 % of control | T/C (dose: 20.0 mg/kg/injection, schedule: Q01DX005 (ip), vehicle: water): 247 % of control

Nc1ccc(Cl)cc1C(=O)N1CCN(c2ccc([N+](=O)[O-])cn2)CC1
T/C (dose: 7.5 mg/kg/injection, schedule: Q01DX005 (ip), vehicle: Klucel (hydroxypropylcellulose) (HPC)): 99 % of control | T/C (dose: 15.0 mg/kg/injection, schedule: Q01DX005 (ip), vehicle: Klucel (hydroxypropylcellulose) (HPC)): 92 % of control | T/C (dose: 30.0 mg/kg/injection, schedule: Q01DX005 (ip), vehicle: Klucel (hydroxypropylcellulose) (HPC)): 93 % of control

COc1cccc2c1C(=O)c1c(O)c3c(c(O)c1C2=O)C[C@@](O)(C(C)O)C[C@@H]3OC1CC(N2CCOCC2)C(O)C(C)O1 (some centres undefined)
T/C (dose: 25.0 micrograms/kg/injection, schedule: Q04DX003 (ip), vehicle: water): 101 % of control | T/C (dose: 50.0 micrograms/kg/injection, schedule: Q04DX003 (ip), vehicle: water): 97 % of control | T/C (dose: 100.0 micrograms/kg/injection, schedule: Q04DX003 (ip), vehicle: water): 100 % of control and 118 % of control

CCOC(=O)C1=C(C)NC(C)=C(C(=O)OCC)C1c1ccccc1Cl
T/C (dose: 12.5 mg/kg/injection, schedule: Q01DX009 (ip), vehicle: saline): 100 % of control | T/C (dose: 25.0 mg/kg/injection, schedule: Q01DX009 (ip), vehicle: saline): 110 % of control | T/C (dose: 50.0 mg/kg/injection, schedule: Q01DX009 (ip), vehicle: saline): 120 % of control

CCOC1OCN(c2ccccc2)CC1(C)C (centres undefined)
T/C [3]: 115 % of control | T/C [4]: 114 % of control | T/C [5]: 108 % of control | T/C (dose: 400.0 mg/kg/injection, schedule: Q01DX009 (ip), vehicle: saline with Tween-80): 117 % of control

Cc1cc(C(=O)NCCc2ccc(S(=O)(=O)NC(=O)NCC3CC4CCC3C4)cc2)no1 (centres undefined)
T/C (dose: 50.0 mg/kg/injection, schedule: Q01DX001 (ip), vehicle: Klucel (hydroxypropylcellulose) (HPC)): 106 % of control | T/C (dose: 100.0 mg/kg/injection, schedule: Q01DX001 (ip), vehicle: Klucel (hydroxypropylcellulose) (HPC)): 97 % of control | T/C (dose: 200.0 mg/kg/injection, schedule: Q01DX001 (ip), vehicle: Klucel (hydroxypropylcellulose) (HPC)): 94 % of control

Clc1ccccc1N=NN1CCN(c2ccccc2)CC1
T/C [3]: 88 % of control | T/C [4]: 102 % of control | T/C [5]: 93 % of control

CSC(/C=C1\C=Cc2ccccc2N1C)=NC#N
T/C (dose: 25.0 mg/kg/injection, schedule: Q04DX002 (ip), vehicle: saline with Tween-80): 100 % of control | T/C (dose: 50.0 mg/kg/injection, schedule: Q04DX002 (ip), vehicle: saline with Tween-80): 106 % of control | T/C (dose: 100.0 mg/kg/injection, schedule: Q04DX002 (ip), vehicle: saline with Tween-80): 97 % of control

CC(C)(O)c1ccccc1Sc1ccccc1C(C)(C)O
T/C (dose: 100.0 mg/kg/injection, schedule: Q01DX001 (ip), vehicle: saline with Tween-80): 102 % of control | T/C (dose: 200.0 mg/kg/injection, schedule: Q01DX001 (ip), vehicle: saline with Tween-80): 103 % of control | T/C (dose: 400.0 mg/kg/injection, schedule: Q01DX001 (ip), vehicle: saline with Tween-80): 95 % of control

O=c1oc2cc(O)ccc2cc1-c1nc2ccccc2o1
T/C [6]: 97 % of control | T/C [7]: 98 % of control | T/C [8]: 96 % of control

CNC(=O)Nc1nnnc2ccccc12
T/C (dose: 25.0 mg/kg/injection, schedule: Q04DX003 (ip), vehicle: saline with Tween-80): 90 % of control | T/C (dose: 50.0 mg/kg/injection, schedule: Q04DX003 (ip), vehicle: saline with Tween-80): 100 % of control | T/C (dose: 100.0 mg/kg/injection, schedule: Q04DX003 (ip), vehicle: saline with Tween-80): 100 % of control

CC1C(=O)OC2CC34C5CC(C(C)(C)C)C36C(OC(=O)C6O)OC4(C(=O)O5)C21O (centres undefined)
T/C [9]: 100 % of control | T/C [10]: 100 % of control | T/C (dose: 200.0 mg/kg/injection, schedule: Q01DX005 (ip), vehicle: Klucel (hydroxypropylcellulose) (HPC)): 92 % of control

O=C1NC(=S)NC(=O)C1=Cc1cccc2cc3ccccc3cc12
T/C (dose: 25.0 mg/kg/injection, schedule: Q01DX005 (ip), vehicle: Klucel (hydroxypropylcellulose) (HPC)): 100 % of control | T/C [9]: 89 % of control | T/C [10]: 95 % of control

NC(CCC(=O)NC(CSC(c1ccccc1)(c1ccccc1)c1ccccc1)C(=O)NCC(=O)O)C(=O)O (centres undefined)
T/C [1]: 101 % of control and 115 % of control | T/C [2]: 101 % of control and 113 % of control

N#CCC(=O)O
T/C (dose: 18.75 mg/kg/injection, schedule: Q04DX003 (ip), vehicle: saline): 100 % of control | T/C (dose: 37.5 mg/kg/injection, schedule: Q04DX003 (ip), vehicle: saline): 100 % of control | T/C (dose: 75.0 mg/kg/injection, schedule: Q04DX003 (ip), vehicle: saline): 90 % of control

COC1=C(C#N)C(c2ccccc2)CC(N)=N1 (centres undefined)
T/C [1]: 112 % of control | T/C [2]: 94 % of control

C=C1C(O)C2(O)OCC34C(CC5C(C)=CC(=O)C(O)C5(C)C23)OC(=O)C(OC(=O)C(C)(O)CC)C14 (centres undefined)
T/C (dose: 0.25 mg/kg/injection, schedule: Q01DX009 (ip), vehicle: saline + alcohol): 106 % of control and 112 % of control | T/C (dose: 0.5 mg/kg/injection, schedule: Q01DX009 (ip), vehicle: saline + alcohol): 118 % of control

COc1cccc2c1C(=O)c1c(O)c3c(c(O)c1C2=O)CC(O)(C(C)=O)CC3OC1CC(NC(=O)CN(C)C)C(O)C(C)O1 (centres undefined)
T/C (dose: 0.25 mg/kg/injection, schedule: Q01DX009 (ip), vehicle: water): 109 % of control | T/C (dose: 0.5 mg/kg/injection, schedule: Q01DX009 (ip), vehicle: water): 120 % of control

CC1CCC2C(C)(C)C3CC12CC1OC13C (centres undefined)
T/C [6]: 100 % of control | T/C [7]: 91 % of control | T/C [8]: 96 % of control

CN1NC(c2ccccc2)=C(C#N)C(=O)CC1c1ccccc1 (centres undefined)
T/C [6]: 96 % of control | T/C [7]: 95 % of control | T/C [8]: 104 % of control
